Read-outs that look alike come from different tables or passages of the source.
Columns and labels:
[1] = tested on: cystic fibrosis; experiment: Treatment of cystic fibrosis patients with DNA drops; assay type: in vivo, human; settings: person, advanced cystic fibrosis, 0.0003 mg per sublingual drop, four times daily
[2] = tested on: respiratory congestion; experiment: Treatment of patients with respiratory congestion (emphysema, bronchitis, upper respiratory illness, sinusitis); assay type: in vivo, human; settings: middle-aged person, chronic sinusitis, one sublingual drop (0.0003 mg) four times daily
Method: A patient who suffered from emphysema and bronchitis, as diagnosed by their physician, was placed on a dose of 1 drop per day (0.0006 mg/drop) of DNA sublingually.
A person diagnosed with chronic upper respiratory illness was treated with methods according to the invention. Previous antibiotic therapy was unsuccessful in treating their condition. […] They have remained symptom free.
A nurse presented with a severe upper respiratory infection and unproductive respiratory congestion. […] Expectoration was improved and the patient's illness resolved after 4.5 days and no congestion recurred.
A person presented with chronic sinusitis. Four drops of DNA per day were administered.
A person presented with unresolved respiratory congestion. […] The patient was then prescribed four drops of DNA (0.0006 mg/drop) per day.
A person with unproductive upper respiratory congestion was placed on 4 drops of DNA (0.0006 mg/drop) per day. […] In this case, therapy was supplemented with an over-the-counter expectorant.
A person with acute and chronic respiratory disease due to exposure to toxic corrosive materials was treated with methods according to the invention. Prior to such treatment, symptoms, including chronic rhinorrhea, chest congestion and chronic respiratory infections were treated with numerous courses of antibiotics without success. […]

[3] = tested on: heaves (equine COPD); assay type: in vivo, horse
Method: According to this example, a quarter horse mare, at least 20 years of age, suffering from symptoms of heaves (equine COPD) for over ten years was treated subcutaneously twice daily with synthetic DNA. Each dose contained 0.0003 mg of poly(dA):poly(dT) synthetic DNA (Sigma) diluted in phenolated saline. […] Specifically, the horse was no longer coughing, nostrils were not flaring, and breathing was less labored. After one week of administering two doses per day, administration was reduced to once per day for two weeks, then given only on an “as needed” basis.
According to this example, a 15 year old gelding (male horse) suffering from heaves (equine COPD) for over two years was treated with synthetic DNA as described in example XXXIX.

| Substance | therapeutic activity after change to synthetic DNA [1] | overall response [2] | time to improvement in condition [2] | improvement ([3]; 15 year old gelding, treated as in example XXXIX) | adverse effects ([3]; in vivo) | condition of the horse ([3]; quarter horse mare, 0.0003 mg subcutaneously twice daily, thirty-six hours after treatment began) | condition of the horse ([3]; 15 year old gelding) | condition of the horse ([3]; quarter horse mare, identical treatment) |
| --- | --- | --- | --- | --- | --- | --- | --- | --- |
| poly(dA):poly(dT) | no decrease in therapeutic activity | improved overall response, including the absence of headaches | ≤ 48 h | Improvement was noted within the first three days | no adverse effects noted | significantly improved |  |  |
| poly(dG):poly(dC) | same results |  |  |  |  |  | significant improvement | significant improvement |

Source: patent US20030032614A1, “Method of treating respiratory distress using synthetic polynucleic acids” (priority 1995, published 2003)
